Experimental data taken from US7030158B2, “Therapeutic compounds” (Ardenia Investments Ltd., priority 2002, dated 2006).

Tests used:
rats = settings: rat, in vivo, ip, 100 mg/kg
Description: A single dose i.p. toxicity study in rats was carried out. […] The minimal lethal dose is thus above 100 mg/kg body weight for these compounds.

[1] = tested on: Human Breast Adenocarcinoma Cell Line MDA-MB-231; assay: Drug cytotoxicity testing (viable cell count, trypan blue exclusion) in MDA-MB-231 cultures; format: cell-based; settings: for Tumor Cell Number: compound or drug alone 10^−7 mol/L (100 nM), medium with 5% FBS
Description: MDA-MB-231 cells were propagated in MEM culture medium with 2 mM L-glutamine, 10% heat-inactivated fetal bovine serum (FBS) and antibiotics. DU 145 cells were cultured in MEM culture medium containing 2 mM L-glutamine, 1 mM sodium pyruvate, 10% FBS and antibiotics. SKOV-3 cells were cultured in McCoy's 5A culture medium, supplemented with 1,5 mM L-glutamine, 10% FBS and antibiotics. A549 cells were cultured in Ham's F-12 culture medium with 1 mM L-glutamine, 10% FBS and antibiotics.
The cell cultures in cultivation plates were allowed to adhere for 24 hour of incubation. […] The cells were incubated for 2 consecutive days. At the end of the incubation period adherent cells were detached by trypsinization and the number of viable cells was counted using trypan blue exclusion test and a hemocytometer. All data were derived from an average of three determinations each in six replicates. The results were expressed as mean cell number±SE and the differences between control and test series evaluated by means of Student's t-test. The drug cytotoxicity was evaluated based on the extent of cell growth inhibition.
Therefore an average of negative controls was calculated. […] Therefore an average of positive controls was calculated (for each antibiotic).

CC1=C(/C=C/C(C)=C/C=C/C(C)=C/C(=O)N[C@@H](CS(=O)O)C(=O)O)C(C)(C)CCC1 (stereo in doubt) [I-2, N-(all-trans-Retinoyl)-L-cysteinesulfinic acid]
mortality (rats): did not produce mortality

CCCCOC(=O)[C@H](CS(=O)(=O)O)NC(=O)\C=C(C)/C=C/C=C(C)/C=C/C1=C(C)CCCC1(C)C [II-1e]
Tumor Cell Number [1]: (26.0 ± 1.27) × 10^3, cell growth inhibition

CC1=C(/C=C/C(C)=C/C=C/C(C)=C\C(=O)N[C@@H](CCS(=O)(=O)O)C(=O)O)C(C)(C)CCC1 [II-3, N-(13-cis-Retinoyl)-L-homocysteic acid]
mortality (rats): did not produce mortality

CC1=C(/C=C/C(C)=C/C=C/C(C)=C\C(=O)N[C@@H](CS(=O)(=O)O)C(=O)OC(C)C)C(C)(C)CCC1 [II-1c]
Tumor Cell Number [1]: 29.0 ± 1.26 × 10^3

CC1=C(/C=C/C(C)=C/C=C/C(C)=C/C(=O)N[C@@H](CS(=O)(=O)O)C(=O)O)C(C)(C)CCC1 [I-1, N-(all-trans-Retinoyl)-L-cysteic acid]
mortality (rats): did not produce mortality

COC(=O)[C@H](CCS(=O)(=O)O)NC(=O)/C=C(C)/C=C/C=C(C)/C=C/C1=C(C)CCCC1(C)C [I-3a]
cell growth inhibition achieved when increasing the concentration ([1]; compound (sodium salt) alone, concentration range 10^−9 to 10^−7 M, listed as II-3a): ~49%
